From patent US20240425475A1, “COMPOUND BASED ON QUINAZOLINE-SUBSTITUTED GLUTARIMIDE SKELETON AND USE THEREOF” (GLUETACS THERAPEUTICS (SHANGHAI) CO., LTD., priority 2022, published 2024)

How the values were obtained:
[1] = tested on: Human B-lymphoma cell: Ramos; assay: Half inhibitory concentration (IC50) against tumor cells, CCK-8 cell viability; format: cell-based; conditions: 96 h treatment
Experimental: (§1) The tumor cells used herein were cultured in a cell culture medium listed in table 2 at 37° C. in an incubator with 5% CO2. Prior to experimentation, all cells used were correctly identified by STR profiling, and tested negative for mycoplasma through routine screenings. [table] Determination of Half Inhibitory Concentration (IC50) of the Compounds Against Tumor Cells: IC50 values of the compounds of the present disclosure (including the compounds in Table 1, and compounds of examples 1-104) were measured using the Meilun Cell Counting Kit-8 kit from Dalian Meilun Biotech Co., Ltd. Assay details are as follows: tumor cells were seeded in a 96-well plate at a density listed in Table 3. After 24 h, 100 μL of the inoculated cells were treated with 0.5 μl of the compounds of the present disclosure (including the compounds in Table 1, and compounds of examples 1-104) at 10 different successively decreasing concentrations (starting at the highest concentration of […]; 5-fold serial dilutions). After the cells were treated with the compounds of the present disclosure for a period of time, cell viability was measured according to the instructions provided with the CCK-8 kit. DMSO served as the negative control, and corresponding commercial immunomodulatory drug Avadomide (CC-122) was used as the positive control, both of which treated the cells using the same protocol as that of the compounds of the present disclosure. The growth inhibition of the compounds of the present disclosure on cells was plotted by Prism Graphpad software, and the IC50 values of the compounds of the present disclosure were calculated therefrom. [table] We tested the activities of the compounds of the present invention (including the compounds in Table 1 and Examples 1-104 compounds) in tumor cells through a dose-dependent manner. The cells were treated with the compounds of the present invention at 10 different successively decreasing concentrations (starting at the highest concentration of 10 μM; 5-fold serial dilutions) for 72 h or 96 h, and then the cell viability determination was performed in accordance with CCK-8 reagent operating instructions.

[2] = tested on: Human Burkitt's lymphoma cell line: Daudi; assay: as above; format: cell-based; conditions: 96 h treatment
Experimental: as §1

[3] = tested on: Human cell line: Kasumi-1; assay: as above; format: cell-based; conditions: Kasumi-1 cells, 72 h treatment
Experimental: as §1

[4] = tested on: Human colon cancer cell: SW620; assay: as above; format: cell-based; conditions: SW-620, 96 h treatment
Experimental: as §1

[5] = tested on: Human dexamethasone-resistant multiple myeloma cell line: MM.1R; assay: as above; format: cell-based; conditions: MM.1R cells, 72 h treatment
Experimental: as §1

[6] = tested on: Human diffuse large B-cell lymphoma cell line: TMD8; assay: as above; format: cell-based; conditions: 96 h treatment
Experimental: as §1

[7] = tested on: Human multiple myeloma cells: MM.1S; assay: as above; format: cell-based; conditions: MM1.S, MM.1S cells, 72 h treatment
Experimental: as §1

[8] = biological target: human Cereblon WT GST-tagged protein (Homo sapiens (Human), UniProt Q96SW2); assay: CRBN-binding affinity, CEREBLON BINDING kit (HTRF); conditions: HTRF inhibitory activity, binding to CRBN
From the text: Determination of CRBN-Binding Affinity of Compounds
The CEREBLON BINDING kits (specification: 10,000 tests; product number: Catalog #64BDCRBNPEH; CISBIO company) was used to determine the CRBN binding ability of the compounds to be tested through a HTRF method (homogeneous time-resolved fluorescence). The specific methods are as follows: • 1. According to the instructions of the CEREBLON BINDING kits, the compounds to be tested of the present invention and lenalidomide were serially diluted using diluent #9 (1×) solution to obtain a final concentration of 2 μM for both the tested compounds and lenalidomide solution. • 2.2.5 μL of the above 2 μM of the tested compounds and lenalidomide solution, as well as the same volume of diluent #9 (1×) solution (solvent control group, Std0) were taken and added to each well of a 96-well plate, respectively. Then, 2.5 μL of (human Cereblon WT GST-tagged protein) solution was added to each well. Finally, 5 μL of the uniformly mixed thalidomide-Red reagent and GST Eu antibody working solution were added to each of the above wells. The final concentration of the tested compounds and lenalidomide in each well is 0.5 μM. • 3. The blank control wells were sequentially added with 2.5 μL of diluent #9 (1×) solution, 2.5 μL of PROTAC binding buffer, and 5 μL of uniformly mixed thalidomide-Red reagent and GST Eu antibody working solution. • 4. After sealing and incubating the solutions in the above wells at room temperature for 3 hours, the absorbance values at emission wavelengths of 620 nm and 665 nm were detected by the HTRF method using a Spark microplate reader (V3.1 SP1).
The corresponding CRBN binding inhibition rate was calculated using the following method: […]
Note: OD 665 nmcompound is the absorbance value of each well of the compounds to be tested of the present disclosure at an emission wavelength of 665 nm.
OD 620 nmcompound is the absorbance value of each well of the compounds to be tested of the present disclosure at an emission wavelength of 620 nm.
OD 665 nmcontrol is the absorbance value of the blank control well at an emission wavelength of 665 nm.
OD 620 nmcontrol is the absorbance value of the blank control well at an emission wavelength of 620 nm.
OD 665 nmstd0 is the absorbance value of the solvent control well at an emission wavelength of 665 nm.
OD 620 nmstd0 is the absorbance value of the solvent control well at an emission wavelength of 620 nm.

Sequence of human Cereblon WT GST-tagged protein (Q96SW2 whole entry): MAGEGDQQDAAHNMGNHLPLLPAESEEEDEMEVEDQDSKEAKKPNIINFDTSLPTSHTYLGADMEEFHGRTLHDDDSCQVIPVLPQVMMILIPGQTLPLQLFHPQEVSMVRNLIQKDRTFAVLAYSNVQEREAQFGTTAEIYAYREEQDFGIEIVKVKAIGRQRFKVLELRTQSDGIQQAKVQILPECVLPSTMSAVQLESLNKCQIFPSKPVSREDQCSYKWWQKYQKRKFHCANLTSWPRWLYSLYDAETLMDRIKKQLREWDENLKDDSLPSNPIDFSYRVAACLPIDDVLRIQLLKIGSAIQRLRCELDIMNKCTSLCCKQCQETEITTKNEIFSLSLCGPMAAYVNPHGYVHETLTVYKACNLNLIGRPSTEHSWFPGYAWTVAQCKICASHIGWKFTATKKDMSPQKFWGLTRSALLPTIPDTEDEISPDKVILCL

| Compound | IC50 [1] | IC50 [2] | IC50 [3] | IC50 [4] | IC50 [5] | IC50 [6] | IC50 [7] | IC50 [8] |
| --- | --- | --- | --- | --- | --- | --- | --- | --- |
| Cc1nc2cccc(N)c2c(=O)n1C1CCC(=O)NC1=O (centres unmarked) [CC-122, Avadomide, reference compound] | 1330 nM | 1650 nM | > 10000 nM | > 10000 nM | 464 nM | 890 nM | 46.9 nM |  |
| Cc1nc2cccc(SCCCN3CCN(CC45CC6CC(CC(C6)C4)C5)CC3)c2c(=O)n1C1CCC(=O)NC1=O (centres unmarked) [GT-03235, 3-(5-((3-(4-(((1s,3s)-adamantan-1-yl)methyl)piperazin-1-yl)propyl)thio)-2-methyl-4-oxoquinazolin-3(4H)-yl)piperidine-2,6-dione] | 398 nM |  |  |  |  |  |  | 2400 nM |
| Cc1nc2cccc(NCCN3CCN(CCC45CC6CC(CC(C6)C4)C5)CC3)c2c(=O)n1C1CCC(=O)NC1=O (centres unmarked) [GT-03301, 3-(5-((2-(4-(2-((3r,5r,7r)-adamantan-1-yl)ethyl)piperazin-1-yl)ethyl)amino)-2-methyl-4-oxoquinazolin-3(4H)-yl)piperidine-2,6-dione] | 165 nM | 155 nM | 104 nM | 35.8 nM | 32.8 nM | 186 nM | 79.6 nM | 1720 nM |
| Cc1nc2cccc(SCCCN3CCN(CCC45CC6CC(CC(C6)C4)C5)CC3)c2c(=O)n1C1CCC(=O)NC1=O (centres unmarked) [GT-03306, 3-(5-((3-(4-(2-((3r,5r,7r)-adamantan-1-yl)ethyl)piperazin-1-yl)propyl)thio)-2-methyl-4-oxoquinazolin-3(4H)-yl)piperidine-2,6-dione] | 89.3 nM | 44.9 nM | 22.3 nM | 18.6 nM | 12.7 nM | 86.5 nM | 29.3 nM | 1570 nM |
| Cc1nc2cccc(SCCCN3CCN(C(c4ccc(F)cc4)c4ccc(F)cc4)CC3)c2c(=O)n1C1CCC(=O)NC1=O (centres unmarked) [GT-03387, 3-(5-((3-(4-(bis(4-fluorophenyl)methyl)piperazin-1-yl)propyl)thio)-2-methyl-4-oxoquinazolin-3(4H)-yl)piperidine-2,6-dione] | 490 nM | 286 nM |  |  | 276 nM | 204 nM |  |  |
| Cc1nc2cccc(SCCCN3CCN(C(c4ccc(Cl)cc4)c4ccc(Cl)cc4)CC3)c2c(=O)n1C1CCC(=O)NC1=O (centres unmarked) [GT-03697, 3-(5-((3-(4-(bis(4-chlorophenyl)methyl)piperazin-1-yl)propyl)thio)-2-methyl-4-oxoquinazolin-3(4H)-yl)piperidine-2,6-dione] | 652 nM | 546 nM | 694 nM |  | 204 nM |  |  |  |
| Cc1nc2cccc(N3CC(C)N(CCC45CC6CC(CC(C6)C4)C5)C(C)C3)c2c(=O)n1C1CCC(=O)NC1=O (centres unmarked) [GT-04246, 3-(5-(4-(2-((3r,5r,7r)-adamantan-1-yl)ethyl)-3,5-dimethylpiperazin-1-yl)-2-methyl-4-oxoquinazolin-3(4H)-yl)piperidine-2,6-dione] |  |  |  | 387 nM |  | 413 nM |  |  |
